# Experiments:
# [1] = Plasma lipid test: polyunsaturated to saturated fatty acid ratio in rabbits on milk diet plus carnitines; format: in vivo, New Zealand male rabbits; settings: plasma lipids, carnitines given with milk diet, compared to controls
# From the text: (§1) For these tests a batch of New Zealand male rabbits with a mean body weight of 3.7 kg was used, which, after a period of acclimatisation on a standard diet for eight days, were divided into different groups. One group received standard diet alone, while a second group received unskimmed milk mixed with pellets of the normal diet whose final composition was as follows: 4% fats, 24% proteins, 58% carbohydrates, 0.7% fibre, 10% water, 3% minerals and 1% vitamins. […]
# (§2) After four weeks of treatment, blood samples were taken from the marginal vein of the ear and the plasma lipids obtained were subjected to measurement of the percentages of both saturated fatty acids and polyunsaturated fatty acids. The percentage amounts of unsaturated omega-3 fatty acids present in liver samples taken from the same animals were also measured. While total lipids were measured according to the method described by Schanfeld (Schanfeld G., J. Clin. Invest., 226:497, 1957) and Folch (Folch J., J. Biol. Chem., 226:497, 1957), the triglycerides and phospholipids were measured according to the method described by Terstra (Terstra A. H. M., Anal. Biochem., 11:149, 1981) and the n-3 and n-6 fatty acids according to the method described by Nestel (Nestel P. J., Ann. Rev. Nutr., 10:149, 1990) and Cevec (Cevec G., Biochemistry, 30:7:7186, 1991).
# [2] = n-3 and n-6 fatty acids in hepatic phospholipids of rabbits on the diets; format: in vivo, New Zealand male rabbits; settings: liver specimens, carnitines added to the milk diet
# From the text: as §1, §2
SMILES,change of the ratio of polyunsaturated to saturated fatty acids (in words) [1],increase in n-3 fatty acids / improvement of n-3 to n-6 ratio in liver (in words) [2]
CCC(=O)O[C@H](CC(=O)[O-])C[N+](C)(C)C [propionyl L-carnitine],particularly evident,most active compound
CC(=O)O[C@H](CC(=O)[O-])C[N+](C)(C)C [acetyl L-carnitine],particularly evident,–
